Laboratory results published in patent US20070117834A1, “Methods and compositions for treating Huntington's disease” (priority 2005, published 2007).
Entries after “also recorded” stand apart in the source; their conditions may differ.

What was measured:
[1] = test system: transgenic Drosophila engineered to express the mutant huntingtin protein in all their neurons; details: historical reference; cited from earlier work
[2] = test system: wildtype Drosophila fruit flies; assay: Toxicity of dimebon in wildtype Drosophila (eclosion number and timing); format: in vivo
Method: Dimebon was evaluated for toxicity levels in wildtype Drosophila fruit flies. Dimebon was administered daily at doses ranging from 10 μM to 1 mM to explore its toxicity. An untreated control group was also studied in this experiment. The concentrations given were concentrations of dimebon in the food that animals drink/eat ad libitum. The food consisted of cornmeal (61.2 g), dextrose (129.4. g), yeast (32.4 g) and agar (9.3 g) in 1 liter of water. Concentrated compounds were added to melted agar food cooled to just above the point of setting (about 40° C.), mixed and dispensed.
About 500 wild type Drosophila eggs were collected on grape juice plates for 20 hours, washed with distilled water and transferred 100 per vial to grow at 25 degrees C. The adult progeny were scored after eclosing (emerging from the pupal case) beginning 10 days later to assess developmental delay and toxicity. The criteria used for toxicity were the number (%) of animals that eclose and the time of the eclosing. For example, fewer animals may emerge from the pupal case if a drug is toxic or the same number of animals may eclose but more slowly than the untreated control group.
The toxicity test employed five concentrations (10 μM, 30 μM, 100 μM, 300 μM, 1 mM) plus an untreated control and was repeated with five sets of flies. […] At 1 mM, there was approximately a 20% decrease in eclosion observed, indicating toxicity at this food concentration. ANOVA analysis indicated a significant difference between datasets (p=0.0031), with post-hoc testing indicating a significant difference between the control and 1 mM datasets (p<0.01).

[3] = test system: transgenic Drosophila engineered to express the mutant huntingtin protein in all their neurons; assay: Inhibition of mutant huntingtin-induced neurodegeneration of photoreceptor neurons in Drosophila eyes (pseudopupil scoring); format: in vivo; details: for rescue of photoreceptor neurons / rescue of photoreceptor neurons compared to untreated controls: FIG. 2; for rescue of photoreceptor neurons compared to untreated controls: 7 days on drug-containing food; for suppression of photoreceptor neuron degeneration, retest: FIG. 3; for protection of photoreceptors, overall statement: in vivo
Method: Dimebon was administered to one group of transgenic Drosophila engineered to express the mutant huntingtin protein in all their neurons. This was accomplished by cloning a foreign gene into transposable p-element DNA vectors under control of a yeast upstream activator sequence that is activated by the yeast GAL4 transcription factor. These promoter fusions were injected into fly embryos to produce transgenic animals. The foreign gene is silent until crossed to another transgenic strain of flies expressing the GAL4 gene in a tissue specific manner. The Elav>Gal4 which expresses the transgene in all neurons from birth until death was used in the experiments described.
For compound testing, 20-30 Httex1pQ93 virgins were mated to elav>Gal4 males and eggs were collected for about 20 hours at 25° C. and dispensed into vials (expected about 70% lethality from Htt effects). Upon eclosion, at least 80, 0-8 hour old flies were harvested and place on drug-containing food (20 eclosed adults per vial) and scored when 7 days old. Inhibitor-containing food was prepared just before tester flies began to emerge.
The two types of transgenic animals were crossed in order to collect enough closely matched aged controls to study. The crossed aged-matched adults (about 20 per dosing group) were placed on drug-containing food for 7 days. Animals were transferred to fresh food daily to minimize any effects caused by instability of the compounds. Survival was scored daily. The average number of photoreceptors at day zero was determined by scoring 7-10 of the newly eclosed tester siblings within six hours of eclosing. This established the baseline of degeneration at the time of exposure to drug. At day 7, animals were sacrificed and the number of photoreceptor neurons surviving was counted. […] For pseudopupil analysis, flies were decapitated and the heads are mounted in a drop of nail polish on a microscopic slide. The head was then covered with immersion oil and light is projected through the eye of the fly using a Nikon EFD-3/Optiphot-2 compound microscope with a 50× oil objective.

[4] = test system: transgenic Drosophila engineered to express the mutant huntingtin protein in all their neurons; assay: Motor ability (climbing assay) in the Drosophila model; format: in vivo; details: for numbers surviving to be tested at day 7: initial number of 20 animals at day 0
Method: The motor function of Drosophila obtained as described in the examples above was assessed by exploiting the strong negative geotropism of flies to climb upwards when they are tapped to the bottom of a vial. See, Le Bourg and Lint (1992) Hypergravity and aging in Drosophila melanogaster. 4. […] activity. Gerontology 38, 59-64. Animals were placed in a graduated vessel (e.g., a measuring cylinder). The distance climbed in 10 seconds was measured for each animal over 3 trials with a 5 minute rest period. In a separate experiment using tall thin plastic tubes rather than glass vials, the distance climbed in 30 seconds was also measured. Animals were scored for outcome without knowledge of treatment group. Flies were tested for functional rescue using a behavior assay (climbing assay) where the distance climbed was measured. […] In this assay, climbing was scored blind and each animal was given 3 trials that were then averaged. The climbing of 7 day old animals reared on 0, 10, 100 or 1,000 μM containing food was compared as was the climbing of animals on the day of eclosion. Two trials were performed. In the first, the ability to climb in large glass vials was monitored over 10 seconds. […] The second trial was similar to the first except that animals were tested in tall thin plastic tubes for climbing over 30 seconds. […] The data from the two independent climbing trials are plotted as individual data points in FIG. 6A and 6B. A higher statistical power (e.g., 0.8) given the observed standard deviations and differences of the means may be achieved by doubling the size of the experiment for the highest concentration and increasing about 10 fold for the lower concentrations.

Row | Compound | rescue of photoreceptor neurons, historical positive control [1] | timing of emergence slowed ([2]; 1 mM) | decrease in eclosion ([2]; 1 mM in the food) [%] | toxicity (tolerability) ([2]; 10 to 300 μM in the food, below 1 mM, dihydrochloride) | toxicity in Drosophila, overall statement ([2]; FIG. 1 / experimental summary) | rescue of photoreceptor neurons ([3]; 10 μM) | rescue of photoreceptor neurons compared to untreated controls ([3]; 100 μM, dihydrochloride) | rescue of photoreceptor neurons compared to untreated controls ([3]; 100 μM, listed as Dimebon, dihydrochloride) | suppression of photoreceptor neuron degeneration, retest ([3]; 100 μM, dihydrochloride) | rescue of photoreceptor neurons ([3]; 1 mM) | suppression of photoreceptor neuron degeneration, lower concentrations ([3]; 1, 10 and 30 μM, FIG. 4, dihydrochloride) | suppression of photoreceptor neuron degeneration, retest ([3]; higher doses (300 or 1,000 μM)) | protection of photoreceptors, overall statement ([3]; dihydrochloride) | protection of photoreceptors, overall statement ([3]; listed as Dimebon, dihydrochloride) | previously measured optimum concentration ([3]; photoreceptor rescue) [µM] | numbers surviving to be tested at day 7 ([4]; 10 μM) | numbers surviving to be tested at day 7 ([4]; 100 μM) | climbing behavior over 10 seconds ([4]; 1 mM (1000 μM), 7 day old animals, glass vials, FIG. 5, dihydrochloride) | numbers surviving to be tested at day 7 ([4]; 1 mM) | climbing behavior over 30 seconds ([4]; 10, 100 or 1,000 μM, tall thin plastic tubes, second trial, dihydrochloride)
1 | C[C@@H](N)[C@H]1CC[C@H](C(=O)Nc2ccncc2)CC1 [Y-27632] | strongly rescuing |  |  |  |  |  |  |  |  |  |  |  |  |  |  |  |  |  |  | 
2 | Cc1ccc2c(c1)c1c(n2CCc2ccc(C)nc2)CCN(C)C1.Cl.Cl [dimebon, 2,8-dimethyl-5-(2-(6-methyl-3-pyridyl)-ethyl)-2,3,4,5-tetrahydro-1H-pyrido[4,3-b]indole dihydrochloride] |  | approximately 1 day | ~20 | generally well tolerated; also recorded: no significant toxicity | minimal toxicity | lesser but still apparent rescue of neurons | statistically significant (p=0.0014) rescue of neurons | significant suppression of neuronal degeneration | significant improvement; also recorded: significant rescue | still appeared to cause neuronal rescue, but to a lesser extent | no statistically significant improvement; also recorded: modest tendency for improved photoreceptor numbers | no statistically demonstrable improvement | effective in inhibiting mutant huntingtin-induced neurodegeneration | protect photoreceptors in a dose-dependant manner | 100 | 8 | 12 | significant difference between the control and 1000 μM; also recorded: statistically significant improvement in climbing; also recorded: statistical difference between D7ND and 1 mM | 8 | No statistically demonstrable difference between treated and control groups
